Reference: paper PMC5681660, “Reduced hepatitis B and D viral entry using clinically applied drugs as novel inhibitors of the bile acid transporter NTCP” (Scientific Reports, 2017)
Counter-ions that a name gives are not always drawn.

Molecular target: T1, human NTCP (Homo sapiens, UniProt Q14973)
T1 sequence (Q14973 1-349): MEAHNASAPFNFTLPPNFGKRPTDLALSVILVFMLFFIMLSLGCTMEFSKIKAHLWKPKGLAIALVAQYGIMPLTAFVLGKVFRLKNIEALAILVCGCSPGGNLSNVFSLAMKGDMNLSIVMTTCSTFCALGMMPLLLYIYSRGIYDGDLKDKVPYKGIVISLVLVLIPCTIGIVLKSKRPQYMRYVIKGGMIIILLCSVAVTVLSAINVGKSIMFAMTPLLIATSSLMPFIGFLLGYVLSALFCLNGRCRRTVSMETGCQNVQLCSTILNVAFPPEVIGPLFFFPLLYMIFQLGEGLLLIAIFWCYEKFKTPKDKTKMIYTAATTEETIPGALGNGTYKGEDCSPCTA
Experiment: Screening taurocholate uptake assay (96-well, [14C]taurocholate, 10 µM drug)
Conditions: for B-score functional assay: screening taurocholate uptake, 10 µM drug

[1] = combined ranking of functional and binding screening assays
[2] = ranking over the functional and the binding screening assay

| Structure (SMILES) | Ranking score [1] | B-score functional assay | B-score functional assay (B-score) | Ranking score [2] |
| --- | --- | --- | --- | --- |
| Cl.O=C1OC(CN2CCOCC2)CN1/N=C/c1ccc([N+](=O)[O-])o1 (centres unmarked) [Furaltadone hydrochloride] | 592.766 | 0.718 | – | – |
| NS(=O)(=O)c1cc(C(=O)O)c(NCc2ccco2)cc1Cl [Furosemide] | 1165.28 | – | 1.457 | – |
| CC(=O)O[C@H]1C[C@@]2(C)[C@@H](C[C@@H](O)[C@H]3[C@@]4(C)CC[C@@H](O)[C@@H](C)[C@@H]4CC[C@@]32C)/C1=C(\CCC=C(C)C)C(=O)O [Fusidic acid sodium salt] | 523.068 | -0.548 | – | – |
| COc1ccc(-c2ccc(=N)n(CCCC(=O)O)n2)cc1 [Gabazine bromide] | – | -0.231 | – | 269.035 |
| CCOC(=O)c1ccc(OC(=O)CCCCCN=C(N)N)cc1.CS(=O)(=O)O [Gabexate mesilate] | – | 0.072 | – | 203.005 |
| CC[N+](CC)(CC)CCOc1cccc(OCC[N+](CC)(CC)CC)c1OCC[N+](CC)(CC)CC [Gallamine triethiodide] | 565.721 | 3.679 | – | – |
| COc1c(N2CCNC(C)C2)c(F)cc2c(=O)c(C(=O)O)cn(C3CC3)c12 (centres unmarked) [Gatifloxacin] | 627.155 | -0.592 | – | – |
| COc1cc2ncnc(Nc3ccc(F)c(Cl)c3)c2cc1OCCCN1CCOCC1 [Gefitinib] | 629.087 | 0.784 | – | – |
| Cc1ccc(S(=O)(=O)NC(=O)NN2CC3CCCC3C2)cc1 (centres unmarked) [Gliclazide] | – | -0.222 | – | 246.057 |
| COC1=CC(=O)C[C@@H](C)[C@]12Oc1c(Cl)c(OC)cc(OC)c1C2=O [Griseofulvin] | 477.468 | -0.69 | – | – |
| COc1ccccc1OCC(O)CO (centres unmarked) [Guaifenesin] | 466.326 | 0.275 | – | – |
| N=C(N)N/N=C/c1c(Cl)cccc1Cl [Guanabenz acetate] | 467.541 | -1.531 | – | – |
| N=C(N)NC(=O)Cc1c(Cl)cccc1Cl [Guanfacine hydrochloride] | 635.421 | 0.703 | – | – |
| CC1(C)O[C@@H]2C[C@H]3[C@@H]4CCC5=CC(=O)CC[C@]5(C)[C@@]4(F)[C@@H](O)C[C@]3(C)[C@]2(C(=O)CCl)O1 [Halcinonide] | 634.219 | 0.608 | – | – |
| Clc1cc(Cl)c(OCC#CI)cc1Cl [Haloprogin] | 1271.5 | – | 4.15 | – |
| C[N+]1(C)CCOC(O)(c2ccc(-c3ccc(C4(O)C[N+](C)(C)CCO4)cc3)cc2)C1.[Br-].[Br-] (centres unmarked) [Hemicholinium bromide] | – | -3 | – | 262.621 |
| CC(N)CCCC(C)(C)O (centres unmarked) [Heptaminol hydrochloride] | 1189.85 | – | 2.111 | – |
| COc1ccc([C@@H]2CC(=O)c3c(O)cc(O[C@@H]4O[C@H](CO[C@@H]5O[C@@H](C)[C@H](O)[C@@H](O)[C@H]5O)[C@@H](O)[C@H](O)[C@H]4O)cc3O2)cc1O [Hesperidin] | 580.078 | 0.91 | – | – |
| CC[C@H](c1ccc(O)cc1)[C@@H](CC)c1ccc(O)cc1 [Hexestrol] | – | -5.763 | – | 43.1277 |
| CCCCC(CC)CN1CN(CC(CC)CCCC)CC(C)(N)C1 (centres unmarked) [Hexetidine] | 491.543 | 3.961 | – | – |
| NCCc1c[nH]cn1 [Histamine dihydrochloride] | 536.125 | 0.779 | – | – |
| COc1ccc(CCN)cc1OC [Homoveratrylamine] | 500.783 | 0.521 | – | – |

| Structure (SMILES) | Ranking score [1] | B-score functional assay | B-score functional assay (B-score) | Ranking score [2] |
| --- | --- | --- | --- | --- |
| CCN(CC)CCNc1ccc(CO)c2sc3ccccc3c(=O)c12 [Hycanthone] | 491.684 | -0.266 | – | – |
| NNc1nncc2ccccc12 [Hydralazine hydrochloride] | 587.239 | -0.84 | – | – |
| NS(=O)(=O)c1cc2c(cc1Cl)NCNS2(=O)=O [Hydrochlorothiazide] | 515.124 | 0.079 | – | – |
| C[C@]12CCC(=O)C=C1CC[C@@H]1[C@@H]2[C@@H](O)C[C@@]2(C)[C@H]1CC[C@]2(O)C(=O)CO [Hydrocortisone base] | 557.864 | 0.004 | – | – |
| CCCCCN(C)CCC(O)(P(=O)([O-])O)P(=O)(O)O.[Na+] [Ibandronate sodium] | – | 0.015 | – | 183.606 |
| c1ccc2c(c1)OCC(C1=NCCN1)O2 (centres unmarked) [Idazoxan hydrochloride] | – | -2.926 | – | 198.728 |
| COC1=C(OC)C(=O)C(CCCCCCCCCCO)=C(C)C1=O [Idebenone] | 488.87 | 0.176 | – | – |
| O=c1[nH]c(=O)n([C@H]2C[C@H](O)[C@@H](CO)O2)cc1I [Idoxuridine] | – | -4.488 | – | 91.1921 |
| C[C@@H](O)[C@H]1C(=O)N2C(C(=O)O)=C(SCCN=CN)C[C@H]12 [Imipenem] | 1154.72 | – | 1.996 | – |
| CC1Cc2ccccc2N1NC(=O)c1ccc(Cl)c(S(N)(=O)=O)c1 (centres unmarked) [Indapamide] | 559.557 | -0.108 | – | – |
| COc1ccc2c(c1)c(CC(=O)O)c(C)n2C(=O)c1ccc(Cl)cc1 [Indomethacin] | – | -1.11 | – | 264.174 |
| NC(N)=NCc1cccc(I)c1.NC(N)=NCc1cccc(I)c1.O=S(=O)(O)O [Iobenguane sulfate] | 1171.02 | – | 1.016 | – |
| CC(=O)N(CC(C)C(=O)O)c1c(I)cc(I)c(N)c1I (centres unmarked) [Iocetamic acid] | – | -0.783 | – | 232.635 |
| CC(=O)N(CC(O)CN(C(C)=O)c1c(I)c(C(=O)NCC(O)CO)c(I)c(C(=O)NCC(O)CO)c1I)c1c(I)c(C(=O)NCC(O)CO)c(I)c(C(=O)NCC(O)CO)c1I (centres unmarked) [Iodixanol] | – | 2.051 | – | 270.78 |
| C[C@H](O)C(=O)Nc1c(I)c(C(=O)NC(CO)CO)c(I)c(C(=O)NC(CO)CO)c1I [Iopamidol] | – | -2.672 | – | 105.925 |
| COCC(=O)Nc1c(I)c(C(=O)NCC(O)CO)c(I)c(C(=O)N(C)CC(O)CO)c1I (centres unmarked) [Iopromide] | – | -5.088 | – | 153.642 |
| CC(C)Oc1ccc2c(=O)c(-c3ccccc3)coc2c1 [Ipriflavone] | 535.848 | 2.878 | – | – |
| CC(C)NNC(=O)c1ccncc1.O=P(O)(O)O [Iproniazide phosphate] | 542.692 | 0.714 | – | – |
| Cc1cc(C(=O)NNCc2ccccc2)no1 [Isocarboxazid] | 552.74 | 0.681 | – | – |
| CCC(NC(C)C)C(O)c1ccc(O)c(O)c1.CS(=O)(=O)O (centres unmarked) [Isoetharine mesylate salt] | 639.265 | -0.384 | – | – |
| CC(=O)OCC(=O)[C@@]1(O)CC[C@H]2[C@@H]3CCC4=CC(=O)C=C[C@]4(C)[C@@]3(F)[C@@H](O)C[C@@]21C [Isoflupredone acetate] | 486.111 | 1.125 | – | – |
